{"source": "patent US20080057039A1", "about": "“Diagnostic and Therapeutic Treatments Related to Mitochondrial Disorders” (priority 2003, published 2008)", "molecules": {"B1": {"name": "FasL constructs: FasL fused to a linker peptide and a FLAG-tag that facilitate formation of active trimers (protein, UniProt P48023 130-281, looked up)", "Tumor necrosis factor ligand …": "QIGHPSPPPEKKELRKVAHLTGKSNSRSMPLEWEDTYGIVLLSGVKYKKGGLVINETGLYFVYSKVYFRGQSCNNLPLSHKVYMRNSKYPQDLVMMEGKMMSYCTTGQMWARSSYLGAVFNLTSADHLYVNVSELSLVNFEESQTFFGLYKL", "modifications": "linker, FLAG tag"}}, "key": {"[1]": {"system": "Fas (CD95)", "test": "cell surface Fas on C17.2 neuronal stem cells after H2O2", "assay_type": "cell-based, mouse", "settings": "C17.2 cells, 24-hr exposure, 0.25 mM", "experimental": "Non-permeabilized cells were stained with antibodies to the cell surface receptors Fas (CD95) (Pharmingen) or with antibodies to uncoupling proteins (anti-UCP2 antibody) (Alpha Diagnostic International). Antibodies for both the isotype control and actual stain were added to the cell suspension, mixed, and then placed on ice for and incubation of 25 minutes in the dark. Subsequently the cells were centrifuged at 300×g for 5 minutes and the supernatant removed. The cells were washed one time with 100 μL of PBS/2% FBS and then transferred into flow cyotmetric tubes containing 500 μL of PBS/2% FBS for analysis.\nWe have measured the levels of intracellular H2O2 in these cells. […] C17.2 cells from passage 15 contained 4-fold higher amount of UCP-2 than C17.2 cells at passage 11. Ts65Dn mice and controls fed regular and fatty acid enriched diet. The effects of dietary supplementation with alpha lipoic acid (LA) and […] (ALCAR) on the Ts65Dn mouse and the strain matched control animals have been examined. […] We attempted this supplementation with old (18 months) Ts65Dn mice.\nC17.2 mouse neuronal stem cells (a kind gift from Dr. Evan Schnyder, Harvard) were cultured as described in the Methods above. The cells were treated or not with H2O2 at the concentration indicated on the graphs of FIG. 2. […]"}, "[2]": {"system": "B7.1", "test": "cell surface B7.1 on C17.2 neuronal stem cells after H2O2", "assay_type": "cell-based, mouse", "settings": "C17.2 cells, 24-hr exposure, 0.25 mM"}, "[3]": {"system": "DRG neurons", "test": "dorsal root ganglia (DRG) neurite outgrowth assay", "assay_type": "cell-based, mice", "settings": "for effect on Fas-induced neurite growth: DRGs stimulated through Fas; for neurite outgrowth from DRGs: neonatal mice", "from_the_text": "We have shown that engaging Fas on sensory neurons induces a rapid, extensive regenerative response. We used the dorsal root ganglia (DRG) neurite outgrowth assay to determine whether Fas engagement could induce axon regeneration in vitro. […] We cultured DRGs with anti-Fas antibodies, with isotype matched control antibodies (as a negative control) or with NGF (as a positive control).\nFas engagement induces neurite outgrowth and p35 upregulation in dorsal root ganglia (D)RG) explants. To determine whether Fas-induced activation of the ERK/p35 pathway in neuroblastoma cells correlated with neurite sprouting in primary neurons, we used the DRG neurite outgrowth assay, a well characterized model for axon regeneration from primary neurons in vitro (Harada, T. et al., 2001, Nat. Cell Biol., 3:453). DRGs are collections of sensory neuron cell bodies, together with supporting Schwann cells and fibroblasts. […] We examined Fas expression selectively on the DRG neurons by flow cytometric analysis of DRG cells positive for neuron-specific tubulin III, thus excluding Schwann cells and other non-neural cell types from the analysis. […] The uniform shift in fluorescence intensity, without the presence of distinct subpopulations, indicates uniform Fas expression on the DRG neurons (geometric mean fluorescence intensity shift from 10.95 with negative control staining to 22.39 with anti-Fas staining). DRG explants were cultured with anti-Fas antibodies, with isotype-matched control antibodies (as a negative control), or with NGF (as a positive control). […] Fas-induced neurite outgrowth was indistinguishable from NGF-induced neurite outgrowth kinetically and by morphological criteria (neurite numbers, length, and branching), and could not be differentiated by blinded observers. Fas-induced neurite growth was robust and prolific, completely filling the wells of 96-well plates after two weeks in culture. […] Thus, Fas engagement induced a rapid and prolific neurite outgrowth response in primary sensory neurons."}, "[4]": {"system": "Jurkat cells", "test": "Fas-induced apoptosis, cell cycle analysis by flow cytometry", "assay_type": "cell-based, human", "settings": "for effect on apoptosis induction by FasL constructs: Jurkat cells, FasL constructs plus inhibitor", "from_the_text": "(§1) SH-SY5Y neuroblastoma cells are insensitive to Fas-mediated apoptosis. We used the well-characterized Fas-positive human neuroblastoma cell line SH-SY5Y to investigate Fas signaling in neuronal cells. Because Fas is best known as an inducer of apoptosis, we began by examining anti-Fas-treated SH-SY5Y cells for evidence of Fas-induced apoptosis. Jurkat cells, a human T cell leukemia line considered a model for Fas-mediated apoptosis (Wilson, D. et al., 1999, Cell Immunol., 194:67), provided a positive control. We confirmed that SH-SY5Y cells expressed cell surface Fas by flow cytometry. We then performed cell cycle analysis by flow cytometry on untreated and anti-Fas-treated Jurkat and SH-SY5Y cells after 48 hours in culture.\n(§2) As previously reported, Jurkat T cells underwent Fas-induced apoptosis (7.6+2.8% apoptotic cells in the untreated cultures versus 31.3±3.5% in the anti-Fas antibody-treated cultures) (Wilson, D. et al., 1999, Cell Lnmunol., 194:67). […] We then treated the cells with Fas Ligand (FasL) constructs, consisting of FasL fused to a linker peptide and a FLAG-tag that facilitate formation of active trimers. […] Conversely, blockade of the ERK pathway by the MEK1-specific inhibitor PD98059 had no effect on Jurkat apoptosis. […] In addition, we examined replicate populations of cells for evidence of caspase 8 cleavage as an indication of Fas-induced apoptosis, after 4 hours in culture with control antibodies or anti-Fas antibodies."}, "[5]": {"system": "SH-SY5Y neuroblastoma cells", "test": "Fas-induced apoptosis, cell cycle analysis by flow cytometry", "assay_type": "cell-based, human", "settings": "for effect on apoptosis of FasL-treated neuroblastoma cells: SH-SY5Y, FasL constructs plus inhibitor", "from_the_text": "as §1, §2"}, "[6]": {"system": "caspase 8", "test": "caspase 8 cleavage in Jurkat cells", "assay_type": "cell-based, human", "settings": "for effect on caspase 8 cleavage: Jurkat cells stimulated through Fas, plus inhibitor", "from_the_text": "as §2\n(§3) Furthermore, SH-SY5Y cells expressed dramatically less caspase 8 than did Jurkat cells, although they expressed similar levels of FLIP and of Fas. Low levels of caspase 8 expression and inefficient (or non-physiological) Fas ligation by anti-Fas antibody could have masked potential Fas-induced caspase 8 cleavage in SH-SY5Y cells. Therefore, we stimulated the cells with FasL constructs and normalized protein loading to equivalent caspase 8 (instead of equivalent total protein)."}, "[7]": {"system": "ERK", "test": "ERK activation (dual phosphorylation at threonine 202 and tyrosine 204) in SH-SY5Y cells", "assay_type": "cell-based, human", "settings": "for effect on Fas-induced ERK activation: plus inhibitor", "experimental": "Fas engagement induces ERK activation and p35 expression in SY-SHSY cells. Fas cross-linking has been reported to activate ERK in glioma cells (Shinohara, H. et al., 2000, Cancer Research, 60:1766). […] Fas-induced ERK activation was inhibited by PD98059, but appeared to be caspase 8 independent as it was not affected by […]. ERK activation was detected within five minutes of Fas engagement, and persisted for up to 150 minutes."}, "[8]": {"system": "p35", "test": "Fas-induced p35 expression in SH-SY5Y cells", "assay_type": "cell-based, human", "settings": "anti-Fas antibodies plus inhibitor", "experimental": "Sustained activation of ERK for more than 80 minutes was necessary and sufficient for NGF-inducible neurite outgrowth, and p35 upregulation driven by sustained ERK activation is an essential component of this pathway (Pang, L. et al., 1995, J. Biol. Chem., 270:13585; Harada, T. et al., 2001, Nat. Cell Biol., 3:453). Thus, we examined SH-SY5Y cells for Fas-induced p35 expression. […] Thus, Fas engagement-induced sustained ERK activation and MEKI / ERK-dependent p35 expression in SH-SY5Y neuroblastoma cells."}, "[9]": {"system": "p35", "test": "p35 upregulation in DRG explants (Western blots)", "assay_type": "cell-based, mice", "settings": "24-hour stimulation, p35 normalized to actin", "from_the_text": "As in SH-SY5Y neurons, Fas engagement induced p35 upregulation in DRG explants after 24-hour stimulation. […] Fas-induced neurite growth is independent of NGF and caspase 8 function, but dependent on ERK activation."}, "[10]": {"system": "caspase 8", "test": "caspase 8 cleavage in SH-SY5Y cells", "assay_type": "cell-based, human", "from_the_text": "as §2, §3"}}, "note": "Entries after “also recorded” stand apart in the source; their conditions may differ."}
{"molecule": "OO", "note": "[H2O2]", "values": [{"measurement": "cell surface expression of Fas (CD95)", "setting": "[1]", "value": "increased"}, {"measurement": "cell surface expression of B7.1", "setting": "[2]", "value": "increased"}]}
{"molecule": "COc1cccc(-c2cc(=O)c3ccccc3o2)c1N", "note": "[PD98059]", "values": [{"measurement": "toxicity to other DRG cells such as Schwann cells", "setting": "[3]; DRG explants", "value": "not toxic"}, {"measurement": "effect on Fas-induced neurite growth", "setting": "[3]", "value": "prevented"}, {"measurement": "effect on NGF-induced neurite outgrowth", "setting": "[3]; DRGs stimulated with NGF", "value": "blocked"}, {"measurement": "toxicity to DRG neurons", "setting": "[3]; inhibitor washed out after two days, restimulated with NGF or FasL constructs", "value": "did not kill the neurons"}, {"measurement": "effect on apoptosis induction by FasL constructs", "setting": "[4]", "value": "no effect"}, {"measurement": "effect on apoptosis of FasL-treated neuroblastoma cells", "setting": "[5]", "value": "Neither IETD nor PD98059 had any effect"}, {"measurement": "effect on caspase 8 cleavage", "setting": "[6]", "value": "unaffected"}, {"measurement": "effect on Fas-induced ERK activation", "setting": "[7]", "value": "inhibited"}, {"measurement": "effect on Fas-induced p35 upregulation", "setting": "[8]", "value": "prevented"}]}
{"molecule": "z-IETD-frnk", "values": [{"measurement": "effect on Fas-induced neurite growth", "setting": "[3]", "value": "not affected; also recorded: not blocked"}, {"measurement": "effect on apoptosis induction by FasL constructs", "setting": "[4]", "value": "completely abrogated"}, {"measurement": "effect on apoptosis of FasL-treated neuroblastoma cells", "setting": "[5]", "value": "Neither IETD nor PD98059 had any effect"}, {"measurement": "effect on caspase 8 cleavage", "setting": "[6]", "value": "reduced to background levels"}, {"measurement": "effect on Fas-induced ERK activation", "setting": "[7]", "value": "not affected"}]}
{"molecule": "nerve growth factor [NGF]", "values": [{"measurement": "neurite outgrowth from DRGs", "setting": "[3]; DRG explants", "value": "sprout neurites"}, {"measurement": "neurite outgrowth in dissociated DRG cultures", "setting": "[3]; glial growth suppressed with cytosine arabinoside", "value": "induced"}, {"measurement": "neurite outgrowth from DRGs of lpr mice", "setting": "[3]; lpr mice, low to absent Fas expression", "value": "delayed and diminished neurite outgrowth"}, {"measurement": "p35 upregulation compared to untreated DRGs", "setting": "[9]", "value": 3.3, "unit": "fold"}]}
{"molecule": "B1", "values": [{"measurement": "induction of caspase 8 cleavage", "setting": "[10]", "value": "no increase"}, {"measurement": "neurite outgrowth from DRGs", "setting": "[3]; DRG explants", "value": "induced robust neurite growth"}, {"measurement": "apoptotic cells", "setting": "[4]; Jurkat, after 24 hour treatment", "value": "> 90", "unit": "%"}, {"measurement": "apoptotic response", "setting": "[5]; SH-SY5Y cells", "value": "failed to induce any detectable apoptotic response"}, {"measurement": "increase of caspase 8 cleavage, treated versus untreated cells", "setting": "[6]; Jurkat cells, loading normalized to equivalent caspase 8", "value": "more than 60%"}, {"measurement": "ERK activation", "setting": "[7]", "value": "triggered ERK activation"}]}
